The conditions of the data set: Crystal.

Numbers after ± are expanded uncertainties.

`Cc1ncc(COP(=O)(O)O)c(C=O)c1O.O` [pyridoxal 5-phosphate hydrate]: the mass density (293 K, 101.33 kPa, Pycnometric method) stood at 1536 ± 5 kg/m3. Also, for the setting “DTA”, the Normal melting temperature was determined as 148.56 ± 0.5 °C.

For the origin of these results see the NIST ThermoML archive (doi:10.1021/acs.jced.8b00309).
